The results in this text go back to ChEMBL document CHEMBL3232777, “QSAR models for HEPT derivates as NNRTI inhibitors based on Monte Carlo method” (Eur J Med Chem, 2014).

For the test, the system named is Human immunodeficiency virus 1. The test is described as follows: Antiviral activity against HIV1 3B infected in human MT4 cells assessed as protection from cytopathic effect. In kind it is functional, organism-based. The conditions noted are these: Human immunodeficiency virus 1, 3B. A general note: Damage to the host cells serves as the signal in cytopathic effect assays.
As for `Cc1c(Sc2ccccc2)n(COCc2ccccc2)c(=O)[nH]c1=O`, the IC50 (commonly the concentration that inhibits the measured activity by half) turned out to be 0.0871 µM.
As to `Cc1c(Sc2ccccc2)n(COCCF)c(=O)[nH]c1=O`, the IC50 turned out to be 1.1 µM.
In the case of `CCc1c(Sc2cc(C)cc(C)c2)n(COCc2ccccc2)c(=S)[nH]c1=O` it was 0.00724 µM.
On to `CCCCOCn1c(Sc2ccccc2)c(C)c(=O)[nH]c1=O`, for which the IC50 was 4.68 µM.
Take `CC(=O)c1ccc(Sc2c(C)c(=O)[nH]c(=O)n2COCCO)cc1`: the IC50 came to 110 µM.
With `O=c1[nH]c(=O)n(COCCO)c(Sc2ccccc2)c1I`, the IC50 is 3.63 µM.
The result for `CC(C)c1c(Sc2ccccc2)n(COCCO)c(=S)[nH]c1=O` reads 0.0589 µM; that for `CCc1c(Sc2cc(Cl)cc(Cl)c2)n(COCCO)c(=S)[nH]c1=O`, 0.0427 µM.
In the case of `Cc1c(Sc2ccc(O)cc2)n(COCCO)c(=O)[nH]c1=O` it was 275 µM; in that of `C=Cc1c(Sc2ccccc2)n(COCCO)c(=O)[nH]c1=O`, 2.04 µM; in that of `Cc1c(Sc2ccccc2Cl)n(COCCO)c(=O)[nH]c1=O`, 129 µM.
In the case of `O=C(c1ccccc1)c1c(Sc2ccccc2)n(COCCO)c(=O)[nH]c1=O` it was 12.9 µM; in that of `Cc1c(Sc2ccc([N+](=O)[O-])cc2)n(COCCO)c(=O)[nH]c1=O`, 191 µM.
With `Cc1c(Sc2cccc(Br)c2)n(COCCO)c(=O)[nH]c1=O`, the IC50 was determined as 5.75 µM.
Regarding `Cc1c(Sc2cccc([N+](=O)[O-])c2)n(COCCO)c(=O)[nH]c1=O`, the IC50 came out at 33.9 µM.
For `Cc1c(Sc2ccccc2)n(C)c(=O)[nH]c1=O`, the IC50 amounted to 151 µM.
For the compound `CCCCCOCCOCn1c(Sc2ccccc2)c(C)c(=O)[nH]c1=O`, the IC50 stood at 34.7 µM.
The result for `Cc1c(Sc2ccccc2)n(COCCCl)c(=O)[nH]c1=O` reads 1.51 µM.
Turning to `COCn1c(Sc2ccccc2)c(C)c(=O)[nH]c1=O`, the IC50 is 2.09 µM.
In the case of `CCc1c(Sc2ccccc2)n(COCCO)c(=O)[nH]c1=O` it was 0.12 µM.
The result for `Cc1c(Sc2cccc(C(=O)O)c2)n(COCCO)c(=O)[nH]c1=O` reads 355 µM; that for `CCc1cccc(Sc2c(C)c(=O)[nH]c(=O)n2COCCO)c1`, 2.69 µM.
On to `Cc1c(Sc2ccccc2)n(COCCN=[N+]=[N-])c(=O)[nH]c1=O`, for which the IC50 worked out at 5.75 µM.
In the case of `Cc1c(Sc2cccc(CO)c2)n(COCCO)c(=O)[nH]c1=O` it was 295 µM; in that of `Cc1c(Sc2ccccc2)n(COCCO)c(=S)[nH]c1=O`, 0.977 µM; in that of `Cc1c(Sc2ccc(C#N)cc2)n(COCCO)c(=O)[nH]c1=O`, 251 µM.
In the case of `CC#Cc1c(Sc2ccccc2)n(COCCO)c(=O)[nH]c1=O`, the IC50 was 19.1 µM.
The result for `COC(=O)c1cccc(Sc2c(C)c(=O)[nH]c(=O)n2COCCO)c1` reads 7.94 µM; that for `C#Cc1c(Sc2ccccc2)n(COCCO)c(=O)[nH]c1=O`, 18.2 µM; that for `COCCOCn1c(Sc2ccccc2)c(C)c(=O)[nH]c1=O`, 8.71 µM.
For the compound `CC(=O)c1cccc(Sc2c(C)c(=O)[nH]c(=O)n2COCCO)c1`, the IC50 was 7.24 µM.
Consider `CC(C)C(=O)c1c(Sc2ccccc2)n(COCCO)c(=O)[nH]c1=O`, for which the IC50 was found to be 12 µM.
In the case of `CCc1c(Sc2ccccc2)n(COCCO)c(=S)[nH]c1=O` it was 0.11 µM; in that of `Cc1c(Sc2cccc(C(F)(F)F)c2)n(COCCO)c(=O)[nH]c1=O`, 44.7 µM; in that of `CCc1c(Sc2ccccc2)n(COCc2ccc(C)cc2)c(=S)[nH]c1=O`, 0.0776 µM.
In the case of `CCOCn1c(Sc2ccccc2)c(C(C)C)c(=O)[nH]c1=O` it was 0.0102 µM; in that of `Cc1c(Sc2ccccc2)n(COCCOC(=O)c2ccccc2)c(=O)[nH]c1=O`, 7.59 µM.
The result for `Cc1c(Sc2ccc(Cl)cc2)n(COCCO)c(=O)[nH]c1=O` reads 251 µM.
Consider `CCc1c(Sc2ccccc2)n(COC(C)C)c(=O)[nH]c1=O`, for which the IC50 was determined as 0.339 µM.
In the case of `O=c1[nH]c(=O)n(COCCO)c(Sc2ccccc2)c1Cc1ccccc1` it was 42.7 µM; in that of `CCc1c(Sc2ccccc2)n(COC2CCCCC2)c(=S)[nH]c1=O`, 1.62 µM; in that of `COc1cccc(Sc2c(C)c(=O)[nH]c(=O)n2COCCO)c1`, 21.9 µM.
As for `CCc1c(Sc2ccccc2)n(COC(C)C)c(=S)[nH]c1=O`, the IC50 stood at 0.219 µM.
Consider `O=c1[nH]c(=O)n(COCCO)c(Sc2ccccc2)c1F`, for which the IC50 turned out to be 100 µM.
In the case of `Cc1c(Sc2cccc(Cl)c2)n(COCCO)c(=O)[nH]c1=O` it was 12.9 µM; in that of `Cc1c(Sc2ccccc2)n(COCCO)c(=O)[nH]c1=O` [HEPT], 7.08 µM.
The result for `Cc1c(Sc2ccccc2)n(COCCOCc2ccccc2)c(=O)[nH]c1=O` reads 20 µM; that for `CCOCn1c(Sc2ccccc2)c(C2CC2)c(=O)[nH]c1=S`, 0.0955 µM; that for `O=c1[nH]c(=O)n(COCCO)c(Sc2ccccc2)c1C#Cc1ccccc1`, 3.39 µM.
As for `O=C(Nc1ccccc1)c1c(Sc2ccccc2)n(COCCO)c(=O)[nH]c1=O`, the IC50 is 18.2 µM.
The result for `Cc1c(Sc2cccc(I)c2)n(COCCO)c(=O)[nH]c1=O` reads 10 µM.
The result for `Cc1cc(C)cc(Sc2c(C(C)C)c(=O)[nH]c(=S)n2COCCO)c1` reads 0.00501 µM; that for `CCOCn1c(Sc2ccccc2)c(CC)c(=O)[nH]c1=S`, 0.0263 µM; that for `CCOCn1c(Sc2ccccc2)c(C(C)C)c(=O)[nH]c1=S`, 0.0129 µM.
In the case of `CCc1c(Sc2cc(Cl)cc(Cl)c2)n(COCCO)c(=O)[nH]c1=O`, the IC50 is 0.0141 µM.
As to `O=c1[nH]c(=O)n(COCCO)c(Sc2ccccc2)c1Cl`, the IC50 came to 30.2 µM.
In the case of `CCc1c(Sc2cc(C)cc(C)c2)n(COCc2ccccc2)c(=O)[nH]c1=O` it was 0.00282 µM; in that of `Cc1ccc(Sc2c(C)c(=O)[nH]c(=O)n2COCCO)cc1`, 219 µM.
`O=c1[nH]c(=O)n(COCCO)c(Sc2ccccc2)c1Sc1ccccc1`: the IC50 was determined as 20.9 µM.
Consider `Cc1ccccc1Sc1c(C)c(=O)[nH]c(=O)n1COCCO`, for which the IC50 amounted to 70.8 µM.
The result for `CCc1c(Sc2ccccc2)n(COCc2ccccc2)c(=S)[nH]c1=O` reads 0.00813 µM; that for `CCOCn1c(Sc2cc(Cl)cc(Cl)c2)c(CC)c(=O)[nH]c1=O`, 0.00741 µM.
The result for `Cc1c(Sc2cccc(O)c2)n(COCCO)c(=O)[nH]c1=O` reads 81.3 µM; that for `COc1ccc(Sc2c(C)c(=O)[nH]c(=O)n2COCCO)cc1`, 251 µM.
For `Cc1c(Sc2cccc(C(N)=O)c2)n(COCCO)c(=O)[nH]c1=O`, the IC50 worked out at 309 µM.
The result for `CC(C)c1c(Sc2ccccc2)n(COCc2ccccc2)c(=O)[nH]c1=O` reads 0.00309 µM; that for `Cc1c(Sc2cc(Cl)cc(Cl)c2)n(COCCO)c(=O)[nH]c1=O`, 1.29 µM.
On to `Cc1c(Sc2ccc(F)cc2)n(COCCO)c(=O)[nH]c1=O`, for which the IC50 is 251 µM.
As to `CCOCn1c(Sc2cc(Cl)cc(Cl)c2)c(CC)c(=O)[nH]c1=S`, the IC50 was determined as 0.0129 µM.
The result for `CCc1c(Sc2ccccc2)n(COC2CCCCC2)c(=O)[nH]c1=O` reads 3.98 µM.
In the case of `CCOCn1c(Sc2cc(C)cc(C)c2)c(CC)c(=O)[nH]c1=O` it was 0.00575 µM.
For `CCCc1c(Sc2ccccc2)n(COCCO)c(=S)[nH]c1=O`, the IC50 was 10 µM.
In the case of `CCOCn1c(Sc2ccccc2)c(C)c(=O)[nH]c1=O` it was 0.331 µM.
In the case of `CCc1c(Sc2ccccc2)n(COCC2CCCCC2)c(=O)[nH]c1=O` it was 0.447 µM; in that of `Cc1cccc(Sc2c(C)c(=O)[nH]c(=O)n2COCCO)c1`, 2.57 µM.
The result for `CCOCn1c(Sc2ccccc2)c(CC)c(=O)[nH]c1=O` reads 0.0191 µM.
`Cc1cc(C)cc(Sc2c(C)c(=O)[nH]c(=S)n2COCCO)c1`: the IC50 is 0.219 µM.
Consider `CCCc1c(Sc2ccccc2)n(COCCO)c(=O)[nH]c1=O`, for which the IC50 was determined as 3.39 µM.
On to `CCc1c(Sc2ccccc2)n(COCc2ccccc2)c(=O)[nH]c1=O`, for which the IC50 is 0.00589 µM.
In the case of `CCc1c(Sc2ccccc2)n(COCC2CCCCC2)c(=S)[nH]c1=O` it was 0.355 µM.
On to `Cc1c(Sc2cccc(N)c2)n(COCCO)c(=O)[nH]c1=O`, for which the IC50 came to 251 µM.
In the case of `Cc1c(O)nc(O)nc1Sc1ccccc1` it was 251 µM; in that of `Cc1c(Sc2cccc(F)c2)n(COCCO)c(=O)[nH]c1=O`, 3.31 µM; in that of `CCc1c(Sc2ccccc2)n(COCc2ccc(Cl)cc2)c(=S)[nH]c1=O`, 0.012 µM.
In the case of `CC(=O)OCCOCn1c(Sc2ccccc2)c(C)c(=O)[nH]c1=O`, the IC50 was 6.76 µM.
In the case of `CCCCn1c(Sc2ccccc2)c(C)c(=O)[nH]c1=O` it was 1.2 µM.
The result for `CC(C)c1c(Sc2ccccc2)n(COCc2ccccc2)c(=S)[nH]c1=O` reads 0.00724 µM.
In the case of `CCc1c(Sc2cc(C)cc(C)c2)n(COCCO)c(=S)[nH]c1=O` it was 0.00776 µM; in that of `Cc1c(Sc2cccc(C#N)c2)n(COCCO)c(=O)[nH]c1=O`, 10 µM; in that of `CCc1c(Sc2ccccc2)n(COCCc2ccccc2)c(=O)[nH]c1=O`, 0.0955 µM.
For the compound `COc1ccccc1Sc1c(C)c(=O)[nH]c(=O)n1COCCO`, the IC50 amounted to 19.1 µM.
In the case of `CCCOCn1c(Sc2ccccc2)c(C)c(=O)[nH]c1=O` it was 3.31 µM; in that of `O=c1[nH]c(=O)n(COCCO)c(Sc2ccccc2)c1Br`, 20 µM.
The result for `CCOCn1c(Sc2cc(C)cc(C)c2)c(CC)c(=O)[nH]c1=S` reads 0.00501 µM; that for `COC(=O)c1c(Sc2ccccc2)n(COCCO)c(=O)[nH]c1=O`, 6.61 µM.
In the case of `O=c1[nH]c(=O)n(COCCO)c(Sc2ccccc2)c1/C=C/c1ccccc1`, the IC50 turned out to be 6.03 µM.
On to `CCc1c(Sc2ccccc2)n(COCCc2ccccc2)c(=S)[nH]c1=O`, for which the IC50 is 0.0912 µM.
In the case of `CCn1c(Sc2ccccc2)c(C)c(=O)[nH]c1=O` it was 2.19 µM; in that of `O=c1[nH]c(=O)n(COCCO)c(Sc2ccccc2)c1C=C(c1ccccc1)c1ccccc1`, 0.851 µM.
The result for `C=CCc1c(Sc2ccccc2)n(COCCO)c(=O)[nH]c1=O` reads 2.51 µM.
For the compound `Cc1c(Sc2cccc(C(C)(C)C)c2)n(COCCO)c(=O)[nH]c1=O`, the IC50 came out at 12 µM.
In the case of `Cc1c(Sc2ccccc2[N+](=O)[O-])n(COCCO)c(=O)[nH]c1=O`, the IC50 came to 141 µM.
In the case of `CC(C)c1c(Sc2ccccc2)n(COCCO)c(=O)[nH]c1=O` it was 0.0631 µM.
